Laboratory results reported in US8084644B2, “Iminopropene compound and use thereof” (Sumitomo Chemical Company, Limited, priority 2005, dated 2011).

Experiments:
[1] = system: Haemaphysalis longicornis; assay: Test Example 11: filter paper bag contact test on ticks; format: in vivo; settings: 48 h, 0.5 mg test compound on 5 cm×10 cm filter paper, after 2 days
Experimental: 0.5 mg of the test compound was dissolved to […]. Onto one side of filter paper having 5 cm×10 cm, the solution was applied uniformly and then air-dried. Thereafter, the filter paper was folded in half and fixed by paper clips at the side to form bag like shape. Ten Haemaphysalis longicornis was put into the bag, and then the bag was closed with a paper clip. After 2 days, the number of dead insects was examined.

Spodoptela litura = assay: Test Example 13: cabbage test on common cutworm; format: in vivo; settings: 50 ppm, fourth-instar, after four days
Experimental: 0.1 ml of the mixture of xylene and N,N-dimethylformamide (xylene:N,N-dimethylformamide=1:1) and 0.04 ml of the mixture of xylene and Sorpol 3005X (TOHO Chemical Industry Co. LTD) (xylene:Sorpol 3005X=1:9) were added to 16 mg of the each test compound. The mixture was diluted with water as that the active ingredient concentration came to prescribed concentration. Furthermore, spreader (Dain: Takeda Pharmaceutical Co. […] The test solution was applied to a cabbage (Brassicae oleracea) in a fifth-leaf stage at a rate 20 ml per pot. After air-drying, ten fourth-instar worm of common cutworm (Spodoptela litura) was placed onto the cabbage, and the cabbage was covered with a cup having holes. After four days, the number of dead worm was examined.

Structure (SMILES) | mortality at 0.5 mg/filter paper [1] | also measured
Cc1cc(C)nc(SC=CC(=Nc2ccccc2)Oc2ccccc2)n1 [(124), Phenyl 3-(4,6-dimethyl-2-pyrimidinylthio)-N-phenylacrylimidate] |  | melting point: 175 to 178 °C
CC(C)(C)SC=CC(=Nc1ccccc1)Oc1ccccc1 [(140), Phenyl 3-(1,1-dimethylethylthio)-N-phenylacrylimidate] |  | melting point: 134 to 136 °C
C(=CC(=Nc1ccccc1)OCc1ccccc1)Sc1ccccc1 [(60), Benzyl N-phenyl-3-(phenylthio)acrylimidate] |  | melting point: 77 to 81 °C
O=S(=O)(C=CC(=Nc1ccccc1)Oc1ccccc1)c1ccccc1 [(99), Phenyl N-phenyl-3-(phenylsulfonyl)acrylimidate] |  | melting point: 110 to 116 °C
C(=CC(=Nc1ccccc1)Oc1ccccc1)Sc1ccccc1 [(37), Phenyl N-phenyl-3-(phenylthio)acrylimidate] | 100% | 
Cc1ccc(N=C(C=CSc2ccccc2)SC(C)(C)C)cc1 [(265), 1,1-Dimethylethyl N-(4-methylphenyl)-3-(phenylthio)thioacrylimidate] | 100% | 
CC(C)c1ccccc1SC=CC(=Nc1ccccc1)Oc1ccccc1 [(122), Phenyl 3-[2-(1-methylethyl)phenylthio]-N-phenylacrylimidate] | 100% | 
Clc1cccc(SC(C=CSc2ccccc2)=Nc2ccccc2)c1 [(3), 3-Chlorophenyl N-phenyl-3-(phenylthio)thioacrylimidate] | 100% | 
FC(F)(F)c1ccc(N=C(C=CSc2ccccc2)Oc2ccccc2)cc1 [(52), Phenyl N-(4-trifluoromethylphenyl)-3-(phenylthio)acrylimidate] | 100% | 
COc1cccc(SC=CC(=Nc2ccccc2)Oc2ccccc2)c1 [(107), Phenyl 3-(3-methoxyphenylthio)-N-phenylacrylimidate] | 100% | 
Clc1ccc(N=C(C=COc2ccccc2)Oc2ccccc2)cc1 [(43), Phenyl N-(4-chlorophenyl)-3-(phenoxy)acrylimidate] | 100% | 
CCc1ccc(N=C(C=CSc2ccccc2)Oc2ccccc2)cc1 [(63), Phenyl N-(4-ethylphenyl)-3-(phenylthio)acrylimidate] | 100% | 
CC(C)c1ccc(N=C(C=CSc2ccccc2)Oc2ccc(N)cc2)cc1 [(188), 4-Aminophenyl N-[4-(1-methylethyl)phenyl]-3-(phenylthio)acrylimidate] | 100% | 
Cc1ccc(SC=CC(=Nc2ccccc2)Oc2ccccc2)cc1 [(118), Phenyl 3-(4-methylphenylthio)-N-phenylacrylimidate] | 100% | 
CCCCSC(C=CSc1ccccc1)=Nc1ccc(C)cc1 [(284), Butyl N-(4-methylphenyl)-3-(phenylthio)thioacrylimidate] | 100% | 
COc1cccc(SC=CC(=Nc2ccc(C)cc2)SCC(C)C)c1 [(446), Isobutyl 3-(3-methoxyphenylthio)-N-(4-methylphenyl)thioacrylimidate] | 100% | 
Cc1ccc(SC=CC(=Nc2ccccc2)Sc2ccccc2)cc1 [(130), Phenyl 3-(4-methylphenylthio)-N-(phenyl)thioacrylimidate] | 100% | index number (mortality) (Spodoptela litura): 3 (mortality 80 to 99%)
FC(F)(F)c1ccc(SC=CC(=Nc2ccccc2)Oc2ccccc2)cc1 [(123), Phenyl N-phenyl-3-(4-trifluoromethylphenylthio)acrylimidate] | 100% | 
Clc1ccc(SC(C=CSc2ccccc2)=Nc2ccccc2)cc1 [(2), 4-Chlorophenyl N-phenyl-3-(phenylthio)thioacrylimidate] | 100% | 
Cc1ccc(SC=CC(=Nc2ccccc2)Oc2ccccc2)c(C)c1 [(119), Phenyl 3-(2,4-dimethylphenylthio)-N-phenylacrylimidate] | 100% | 

Structure (SMILES) | mortality at 0.5 mg/filter paper [1] | also measured
Cc1cccc(SC=CC(=Nc2ccccc2)Oc2ccccc2)c1 [(106), Phenyl 3-(3-methylphenylthio)-N-phenylacrylimidate] | 100% | 
COc1ccc(SC(C=CSc2ccccc2)=Nc2ccccc2)cc1 [(26), 4-Methoxyphenyl N-phenyl-3-(phenylthio)thioacrylimidate] | 100% | 
Brc1ccc(N=C(C=COc2ccccc2)Oc2ccccc2)cc1 [(77), Phenyl N-(4-bromophenyl)-3-(phenoxy)acrylimidate] | 100% | 
Cc1ccc(N=C(C=CSc2ccccc2C)SCC(C)C)cc1 [(441), Isobutyl N-(4-methylphenyl)-3-(2-methylphenylthio)thioacrylimidate] | 100% | 
CN(C=CC(=Nc1ccccc1)Oc1ccccc1)c1ccccc1 [(132), Phenyl 3-(N′-methyl-N′-phenylamino)-N-phenylacrylimidate] |  | melting point: 130 to 132 °C
Cc1ccc(N=C(C=CSc2ccccc2)Oc2ccccc2)cc1 [(54), Phenyl N-(4-methylphenyl)-3-(phenylthio)acrylimidate] | 100% | 
Cc1ccc(N=C(C=CSc2cccc(F)c2)SCC(C)C)cc1 [(429), Isobutyl 3-(3-fluorophenylthio)-N-(4-methylphenyl)thioacrylimidate] | 100% | 
C(=CC(=Nc1ccccc1)Sc1ccccc1)Oc1ccccc1 [(35), Phenyl N-phenyl-3-(phenoxy)thioacrylimidate] | 100% | 
C#Cc1ccc(N=C(C=COc2ccccc2)Oc2ccccc2)cc1 [(156), Phenyl N-(4-ethynylphenyl)-3-(phenoxy)acrylimidate] | 100% | 
Cc1ccc(N=C(C=CSc2ccccc2F)SCC2CCCCC2)cc1 [(341), Cyclohexylmethyl 3-(2-fluorophenylthio)-N-(4-methylphenyl)-thioacrylimidate] | 100% | 
C(=CN1CCCCC1)C(=Nc1ccccc1)Oc1ccccc1 [(134), Phenyl N-phenyl-3-(piperidino)acrylimidate] |  | melting point: 127 to 128 °C
FC(F)(F)Oc1ccc(N=C(C=COc2ccccc2)Oc2ccccc2)cc1 [(207), Phenyl N-(4-trifluoromethoxyphenyl)-3-phenoxyacrylimidate] | 100% | 
CCSC(C=CSc1ccccc1)=Nc1ccc(C)cc1 [(266), Ethyl N-(4-methylphenyl)-3-(phenylthio)thioacrylimidate] | 100% | 
Fc1ccc(SC=CC(=Nc2ccccc2)Oc2ccccc2)cc1 [(103), Phenyl 3-(4-fluorophenylthio)-N-phenylacrylimidate] | 100% | 
CCC(C)SC(C=CSc1ccccc1)=Nc1ccc(C)cc1 (centres unmarked) [(324), 1-Methylpropyl N-(4-methylphenyl)-3-(phenylthio)thioacrylimidate] | 100% | 
Cc1cccc(N=C(C=COc2ccccc2)Oc2ccccc2)c1 [(69), Phenyl N-(3-methylphenyl)-3-(phenoxy)acrylimidate] | 100% | 
Cc1ccc(C)c(SC=CC(=Nc2ccccc2)Oc2ccccc2)c1 [(120), Phenyl 3-(2,5-dimethylphenylthio)-N-phenylacrylimidate] | 100% | 
FC(F)(F)c1cccc(SC=CC(=Nc2ccccc2)Oc2ccccc2)c1 [(111), Phenyl N-phenyl-3-(3-trifluoromethylphenylthio)acrylimidate] | 100% | 
Fc1ccccc1SC=CC(=Nc1ccccc1)Oc1ccccc1 [(104), Phenyl 3-(2-fluorophenylthio)-N-phenylacrylimidate] | 100% | 
Cc1ccc(N=C(C=CSc2ccc(F)cc2)SC2CCCCC2)cc1 [(471), Cyclohexyl 3-(4-fluorophenylthio)-N-(4-methylphenyl)thioacrylimidate] | 100% | 
